# Test results: ChEMBL document CHEMBL4715742, “Design, synthesis and cytotoxic activities of novel 2,5-diketopiperazine derivatives” (Eur J Med Chem, 2016)
# Assays:
# [1] = test system: U-937; test: Cytotoxicity against human U-937 cells assessed as cell viability at 1.1 uM measured after 48 hrs by CCK8 assay relative to control; type: functional; settings: read-out: Activity
# [2] = test system: U-937; test: Induction of apoptosis in human U-937 cells assessed as necrotic cells at 1 uM measured after 48 hrs by annexinV/FITC-propidium iodide staining based flow cytometry (reference value: 0.794 to 0.955 %); type: functional
# [3] = test system: U-937; test: Induction of apoptosis in human U-937 cells assessed as apoptotic ratio at 0.5 uM measured after 48 hrs by annexinV/FITC-propidium iodide staining based flow cytometry (reference value: 5.2 +/- 0.2 %); type: functional
# [4] = test system: U-937; test: Induction of apoptosis in human U-937 cells assessed as apoptotic ratio at 1 uM measured after 48 hrs by annexinV/FITC-propidium iodide staining based flow cytometry (reference value: 5.2 +/- 0.2 %); type: functional
# [5] = test system: U-937; test: Cytotoxicity against human U-937 cells assessed as cell viability at 1.1 uM measured after 24 hrs by CCK8 assay relative to control; type: functional; settings: read-out: Activity
# [6] = test system: U-937; test: Induction of apoptosis in human U-937 cells assessed as late apoptotic cells at 0.5 uM measured after 24 hrs by annexinV/FITC-propidium iodide staining based flow cytometry (reference value: 2.18 to 2.22 %); type: functional
# [7] = test system: K562; test: Cytotoxicity against human K562 cells assessed as reduction in cell viability measured after 24 to 72 hrs by CCK8 assay; type: functional, cell-based; settings: dose 0.37-3.3 µM, time 24-72 hrs
# [8] = test system: U-937; test: Cytotoxicity against human U-937 cells assessed as reduction in cell viability at 0.37 to 3.3 uM by CCK8 assay; type: functional, cell-based; settings: dose 0.37-3.3 µM, TDE = time-dependent effect
# [9] = test system: K562; test: Cytotoxicity against human K562 cells assessed as cell viability at 1.1 uM measured after 24 hrs by CCK8 assay relative to control; type: functional; settings: read-out: Activity
# [10] = test system: U-937; test: Induction of apoptosis in human U-937 cells assessed as viable cells at 0.5 uM measured after 48 hrs by annexinV/FITC-propidium iodide staining based flow cytometry (reference value: 93.7 to 94.2 %); type: functional; settings: read-out: Activity
# [11] = test system: U-937; test: Induction of apoptosis in human U-937 cells assessed as necrotic cells at 2 uM measured after 24 hrs by annexinV/FITC-propidium iodide staining based flow cytometry (reference value: 1.12 to 1.48 %); type: functional
# [12] = test system: U-937; test: Induction of apoptosis in human U-937 cells assessed as early apoptotic cells at 0.5 uM measured after 24 hrs by annexinV/FITC-propidium iodide staining based flow cytometry (reference value: 1.28 to 1.68 %); type: functional
# [13] = test system: U-937; test: Induction of apoptosis in human U-937 cells assessed as necrotic cells at 0.5 uM measured after 24 hrs by annexinV/FITC-propidium iodide staining based flow cytometry (reference value: 1.12 to 1.48 %); type: functional
# [14] = test system: U-937; test: Induction of apoptosis in human U-937 cells assessed as necrotic cells at 1 uM measured after 24 hrs by annexinV/FITC-propidium iodide staining based flow cytometry (reference value: 1.12 to 1.48 %); type: functional
# [15] = test system: A549; test: Cytotoxicity against human A549 cells assessed as reduction in cell viability measured after 72 hrs by CCK8 assay; type: functional, cell-based; settings: Homo sapiens, A549, 72 h; read-out: IC50
# [16] = test system: U-937; test: Induction of apoptosis in human U-937 cells assessed as viable cells at 2 uM measured after 24 hrs by annexinV/FITC-propidium iodide staining based flow cytometry (reference value: 95 to 95.1 %); type: functional; settings: read-out: Activity
# [17] = test system: U-937; test: Cytotoxicity against human U-937 cells assessed as cell viability at 0.37 uM measured after 24 hrs by CCK8 assay relative to control; type: functional; settings: read-out: Activity
# [18] = test system: U-937; test: Induction of apoptosis in human U-937 cells assessed as viable cells at 0.5 uM measured after 24 hrs by annexinV/FITC-propidium iodide staining based flow cytometry (reference value: 95 to 95.1 %); type: functional; settings: read-out: Activity
# [19] = test system: U-937; test: Induction of apoptosis in human U-937 cells assessed as early apoptotic cells at 1 uM measured after 48 hrs by annexinV/FITC-propidium iodide staining based flow cytometry (reference value: 1.78 to 1.88 %); type: functional
# [20] = test system: U-937; test: Cytotoxicity against human U-937 cells assessed as reduction in cell viability measured after 72 hrs by CCK8 assay; type: functional, cell-based; settings: Homo sapiens, U-937, 72 h; read-out: IC50
# [21] = test system: U-937; test: Induction of apoptosis in human U-937 cells assessed as late apoptotic cells at 0.5 uM measured after 48 hrs by annexinV/FITC-propidium iodide staining based flow cytometry (reference value: 3.27 to 3.41 %); type: functional
# [22] = test system: U-937; test: Induction of apoptosis in human U-937 cells assessed as early apoptotic cells at 1 uM measured after 24 hrs by annexinV/FITC-propidium iodide staining based flow cytometry (reference value: 1.28 to 1.68 %); type: functional
# [23] = test system: U-937; test: Induction of apoptosis in human U-937 cells assessed as viable cells at 1 uM measured after 24 hrs by annexinV/FITC-propidium iodide staining based flow cytometry (reference value: 95 to 95.1 %); type: functional; settings: read-out: Activity
# [24] = test system: U-937; test: Induction of apoptosis in human U-937 cells assessed as viable cells at 1 uM measured after 48 hrs by annexinV/FITC-propidium iodide staining based flow cytometry (reference value: 93.7 to 94.2 %); type: functional; settings: read-out: Activity
# [25] = test system: K562; test: Cytotoxicity against human K562 cells assessed as cell viability at 3.3 uM measured after 48 hrs by CCK8 assay relative to control; type: functional; settings: read-out: Activity
# [26] = test system: U-937; test: Induction of apoptosis in human U-937 cells assessed as apoptotic ratio at 0.5 uM measured after 24 hrs by annexinV/FITC-propidium iodide staining based flow cytometry (reference value: 3.7 +/- 0.3 %); type: functional
# [27] = test system: U-937; test: Cytotoxicity against human U-937 cells assessed as reduction in cell viability measured after 24 to 72 hrs by CCK8 assay; type: functional, cell-based; settings: dose 0.37-3.3 µM, time 24-72 hrs
# [28] = test system: K562; test: Cytotoxicity against human K562 cells assessed as cell viability at 3.3 uM measured after 72 hrs by CCK8 assay relative to control; type: functional; settings: read-out: Activity
# [29] = test system: K562; test: Cytotoxicity against human K562 cells assessed as cell viability at 1.1 uM measured after 72 hrs by CCK8 assay relative to control; type: functional; settings: read-out: Activity
# [30] = test system: U-937; test: Induction of apoptosis in human U-937 cells assessed as early apoptotic cells at 0.5 uM measured after 48 hrs by annexinV/FITC-propidium iodide staining based flow cytometry (reference value: 1.78 to 1.88 %); type: functional
# [31] = test system: K562; test: Cytotoxicity against human K562 cells assessed as cell viability at 0.37 uM measured after 72 hrs by CCK8 assay relative to control; type: functional; settings: read-out: Activity
# [32] = test system: U-937; test: Induction of apoptosis in human U-937 cells assessed as necrotic cells at 0.5 uM measured after 48 hrs by annexinV/FITC-propidium iodide staining based flow cytometry (reference value: 0.794 to 0.955 %); type: functional
# [33] = test system: U-937; test: Induction of apoptosis in human U-937 cells assessed as late apoptotic cells at 1 uM measured after 48 hrs by annexinV/FITC-propidium iodide staining based flow cytometry (reference value: 3.27 to 3.41 %); type: functional
# [34] = test system: U-937; test: Cytotoxicity against human U-937 cells assessed as cell viability at 3.3 uM measured after 24 hrs by CCK8 assay relative to control; type: functional; settings: read-out: Activity
structure (smiles),measurement,setting,value
C=CCn1c(=O)/c(=C/CCCC)[nH]c(=O)/c1=C/c1ccc(OC)cc1,viability at 1.1 µM,[1],8.8%
same,Activity,[2],1.04%
same,Activity,[3],16.7%
same,Activity,[4],25.8%
same,viability at 1.1 µM,[5],17.4%
same,Activity,[6],6.11%
same,Activity,[7],Dose-dependent effect
same,Activity,[8],Tde
same,viability at 1.1 µM,[9],50%
same,viability at 0.5 µM,[10],81.4%
same,Activity,[11],1.22%
same,Activity,[12],4.09%
same,Activity,[13],1.07%
same,Activity,[14],1.13%
same,IC50,[15],1700 nM
same,viability at 2 µM,[16],77.9%
same,viability at 0.37 µM,[17],70.5%
same,viability at 0.5 µM,[18],88.4%
same,Activity,[19],10.8%
same,IC50,[20],360 nM
same,Activity,[21],8.32%
same,Activity,[22],7.63%
same,viability at 1 µM,[23],82.6%
same,viability at 1 µM,[24],73.1%
same,viability at 3.3 µM,[25],8.6%
same,Activity,[26],10.4%
same,Activity,[27],Dose-dependent effect
same,viability at 3.3 µM,[28],3.5%
same,viability at 1.1 µM,[29],17.3%
same,Activity,[30],7.77%
same,viability at 0.37 µM,[31],86.2%
same,Activity,[32],1.05%
same,Activity,[33],14.5%
same,viability at 3.3 µM,[34],1.6%
